Results taken from ChEMBL document CHEMBL1201862, “PubChem BioAssay data set” (2004).
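Interpolation was linear, between the two tested concentrations surrounding the appropriate level; five concentrations were tested over 48 hours in 96-well plates. Abbreviation: GI50, concentration required for 50% inhibition of growth.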 Active and inactive are the calls of the source. Cut-off read from the data, not from the text of the source: active = GI50 up to about 1.1 µM and inactive = higher.

Legend:
Assay in all cases: NCI-60 cell line screen, 48 h
K562 = tested on: K562
SR = tested on: SR
SF-268 = tested on: SF-268
ACHN = tested on: ACHN
HCT-116 = tested on: HCT-116
SN12C = tested on: SN12C
LOX IMVI = tested on: LOX IMVI
HCC 2998 = tested on: HCC 2998
SK-OV-3 = tested on: SK-OV-3
EKVX = tested on: EKVX
HOP-92 = tested on: HOP-92
TK-10 = tested on: TK-10
CAKI-1 = tested on: CAKI-1
NCI-H460 = tested on: NCI-H460
NCI-H226 = tested on: NCI-H226
OVCAR-8 = tested on: OVCAR-8
OVCAR-5 = tested on: OVCAR-5
HL-60 = tested on: HL-60

Row | SMILES | GI50 (K562) | GI50 (SR) | GI50 (SF-268) | GI50 (ACHN) | GI50 (HCT-116) | GI50 (SN12C) | GI50 (LOX IMVI) | GI50 (HCC 2998) | GI50 (SK-OV-3) | GI50 (EKVX) | GI50 (HOP-92) | GI50 (TK-10) | GI50 (CAKI-1) | GI50 (NCI-H460) | GI50 (NCI-H226) | GI50 (OVCAR-8) | GI50 (OVCAR-5) | GI50 (HL-60)
1 | O=C1[C@@H]2C(c3ccccc3[N+](=O)[O-])=[N+](c3ccccc3)O[C@@H]2C(=O)N1c1ccc(Cc2ccc(N3C(=O)[C@H]4C(c5ccccc5[N+](=O)[O-])=[N+](c5ccccc5)O[C@H]4C3=O)cc2)cc1 | > 100 µM (inactive) | > 100 µM (inactive) | > 100 µM (inactive) | > 100 µM (inactive) | > 100 µM (inactive) | > 100 µM (inactive) | > 100 µM (inactive) | > 100 µM (inactive) | > 100 µM (inactive) | > 100 µM (inactive) | 49 µM (inactive) | > 100 µM (inactive) | 77.8 µM (inactive) | > 100 µM (inactive) | 74.8 µM (inactive) | > 100 µM (inactive) | > 100 µM (inactive) | > 100 µM (inactive)
2 | CC(=O)OC1[C@H]2c3cc4c(cc3CN3CCC(C[C@@H]1OC(C)=O)C23)OCO4 (some centres undefined) | > 75 µM (inactive) | > 75 µM (inactive) | > 75 µM (inactive) | > 75 µM (inactive) | > 75 µM (inactive) | > 75 µM (inactive) | > 75 µM (inactive) | > 75 µM (inactive) | > 75 µM (inactive) | > 75 µM (inactive) | – | > 75 µM (inactive) | – | > 75 µM (inactive) | 8.13 µM (inactive) | > 75 µM (inactive) | – | > 75 µM (inactive)
3 | CCOC(=O)Cc1nnc2n(-c3ccccc3)c(=O)c3ccccc3n12 | > 100 µM (inactive) | > 100 µM (inactive) | 61.7 µM (inactive) | > 100 µM (inactive) | 90.8 µM (inactive) | > 100 µM (inactive) | > 100 µM (inactive) | > 100 µM (inactive) | > 100 µM (inactive) | > 100 µM (inactive) | 17.1 µM (inactive) | > 100 µM (inactive) | 20.2 µM (inactive) | > 100 µM (inactive) | > 100 µM (inactive) | > 100 µM (inactive) | > 100 µM (inactive) | > 100 µM (inactive)
4 | COc1cc([C@@H]2c3cc4c(cc3[C@@H](NC(=O)c3ccc(C#N)cc3)C3COC(=O)[C@@H]32)OCO4)cc(OC)c1O (some centres undefined) | 1.63 µM (inactive) | – | 0.847 µM (active) | 0.0914 µM (active) | 0.459 µM (active) | 0.207 µM (active) | 0.26 µM (active) | 1.6 µM (inactive) | 0.374 µM (active) | 0.979 µM (active) | 0.586 µM (active) | 1.81 µM (inactive) | 1.14 µM (inactive) | < 0.01 µM (active) | 0.0176 µM (active) | 0.719 µM (active) | 0.794 µM (active) | 0.138 µM (active)
5 | C/C(=N/NC(N)=S)C(CN1CCOCC1)C(C1=C(O)c2ccccc2OC1)c1ccccc1 (centres undefined) | 93.1 µM (inactive) | 25.4 µM (inactive) | 41.8 µM (inactive) | > 100 µM (inactive) | 85.5 µM (inactive) | > 100 µM (inactive) | > 100 µM (inactive) | > 100 µM (inactive) | > 100 µM (inactive) | > 100 µM (inactive) | 71.3 µM (inactive) | > 100 µM (inactive) | > 100 µM (inactive) | > 100 µM (inactive) | > 100 µM (inactive) | > 100 µM (inactive) | > 100 µM (inactive) | 21 µM (inactive)
6 | O=C(CSc1nnc(Cc2ccccc2)o1)Nc1ccc([N+](=O)[O-])cc1 | 40.2 µM (inactive) | – | > 100 µM (inactive) | > 100 µM (inactive) | > 100 µM (inactive) | > 100 µM (inactive) | 61.7 µM (inactive) | > 100 µM (inactive) | > 100 µM (inactive) | – | – | 62.2 µM (inactive) | – | > 100 µM (inactive) | > 100 µM (inactive) | > 100 µM (inactive) | > 100 µM (inactive) | 14.1 µM (inactive)
7 | c1ccc(N2CCN(CCN3CCc4c([nH]c5ccccc45)C3c3cccnc3)CC2)cc1 (centres undefined) | 7.14 µM (inactive) | > 100 µM (inactive) | > 100 µM (inactive) | > 100 µM (inactive) | 46.8 µM (inactive) | > 100 µM (inactive) | – | > 100 µM (inactive) | 24 µM (inactive) | > 100 µM (inactive) | 14.4 µM (inactive) | > 100 µM (inactive) | > 100 µM (inactive) | > 100 µM (inactive) | – | 88.1 µM (inactive) | > 100 µM (inactive) | > 100 µM (inactive)
8 | COC(=O)NN=C1C(C)(C)C(=O)C1(C)C | > 100 µM (inactive) | – | > 100 µM (inactive) | > 100 µM (inactive) | > 100 µM (inactive) | – | > 100 µM (inactive) | > 100 µM (inactive) | > 100 µM (inactive) | > 100 µM (inactive) | > 100 µM (inactive) | > 100 µM (inactive) | – | > 100 µM (inactive) | > 100 µM (inactive) | > 100 µM (inactive) | > 100 µM (inactive) | > 100 µM (inactive)
9 | CNc1ncnc2c1nnn2C | > 100 µM (inactive) | – | – | > 100 µM (inactive) | > 100 µM (inactive) | > 100 µM (inactive) | > 100 µM (inactive) | > 100 µM (inactive) | > 100 µM (inactive) | > 100 µM (inactive) | > 100 µM (inactive) | > 100 µM (inactive) | > 100 µM (inactive) | – | > 100 µM (inactive) | > 100 µM (inactive) | – | > 100 µM (inactive)
10 | COC(=O)/C=C1\CCC2[C@@H](C(=O)CC3[C@]2(C)CCC[C@@]3(C)C(=O)OC)C1C (some centres undefined) | 15 µM (inactive) | – | 19.7 µM (inactive) | 22.5 µM (inactive) | 18.5 µM (inactive) | 24.8 µM (inactive) | – | 34.6 µM (inactive) | 37.9 µM (inactive) | 27.3 µM (inactive) | 21 µM (inactive) | 19.5 µM (inactive) | 30.1 µM (inactive) | 15.7 µM (inactive) | 20 µM (inactive) | 15.1 µM (inactive) | 33 µM (inactive) | 13.1 µM (inactive)
11 | Cn1cc2c(n1)c(N/N=C/c1ccccc1)nn1nnnc21 | > 100 µM (inactive) | > 100 µM (inactive) | > 100 µM (inactive) | > 100 µM (inactive) | > 100 µM (inactive) | > 100 µM (inactive) | > 100 µM (inactive) | > 100 µM (inactive) | > 100 µM (inactive) | > 100 µM (inactive) | > 100 µM (inactive) | > 100 µM (inactive) | > 100 µM (inactive) | > 100 µM (inactive) | > 100 µM (inactive) | > 100 µM (inactive) | – | > 100 µM (inactive)
12 | O=[N+]([O-])c1ccc(Cc2nc3ccccc3s2)cc1 | 43.7 µM (inactive) | 46 µM (inactive) | 74.1 µM (inactive) | > 100 µM (inactive) | 38.9 µM (inactive) | 36.1 µM (inactive) | – | > 100 µM (inactive) | > 100 µM (inactive) | > 100 µM (inactive) | > 100 µM (inactive) | > 100 µM (inactive) | > 100 µM (inactive) | > 100 µM (inactive) | > 100 µM (inactive) | 91.4 µM (inactive) | > 100 µM (inactive) | 63.4 µM (inactive)
13 | Fc1cccc(F)c1C1SCc2nc3ccccc3n21 (centres undefined) [THIAZOLOBENZIMIDAZOLE] | 36.5 µM (inactive) | – | > 100 µM (inactive) | > 100 µM (inactive) | 65.2 µM (inactive) | > 100 µM (inactive) | 80.4 µM (inactive) | > 100 µM (inactive) | > 100 µM (inactive) | 64.6 µM (inactive) | 28.5 µM (inactive) | 61.4 µM (inactive) | > 100 µM (inactive) | 47.3 µM (inactive) | 97.5 µM (inactive) | 77.8 µM (inactive) | 85.9 µM (inactive) | 25.4 µM (inactive)
14 | O=c1c2ccccc2nc(-c2ccccc2)n1NC(=S)Nc1cccc(Cl)c1 | > 100 µM (inactive) | > 100 µM (inactive) | 43.7 µM (inactive) | > 100 µM (inactive) | 95.7 µM (inactive) | > 100 µM (inactive) | > 100 µM (inactive) | – | 40.4 µM (inactive) | – | 31.8 µM (inactive) | 36.6 µM (inactive) | > 100 µM (inactive) | > 100 µM (inactive) | > 100 µM (inactive) | > 100 µM (inactive) | > 100 µM (inactive) | > 100 µM (inactive)
15 | COc1cccc(NC(=O)CC(=O)N2NC(c3ccccc3)C(/N=N/c3cccc(C(=O)O)c3)C2=O)c1 (centres undefined) | – | 55.2 µM (inactive) | > 100 µM (inactive) | > 100 µM (inactive) | > 100 µM (inactive) | > 100 µM (inactive) | > 100 µM (inactive) | > 100 µM (inactive) | > 100 µM (inactive) | > 100 µM (inactive) | > 100 µM (inactive) | > 100 µM (inactive) | 89.5 µM (inactive) | > 100 µM (inactive) | > 100 µM (inactive) | > 100 µM (inactive) | > 100 µM (inactive) | –
16 | CSC(C1c2ccccc2N(C)c2[nH]c(=O)n(C)c(=O)c21)S(=O)(=O)c1ccc(C)cc1 (centres undefined) | 43.6 µM (inactive) | – | > 100 µM (inactive) | – | 68.2 µM (inactive) | > 100 µM (inactive) | > 100 µM (inactive) | > 100 µM (inactive) | > 100 µM (inactive) | 33.6 µM (inactive) | > 100 µM (inactive) | > 100 µM (inactive) | > 100 µM (inactive) | – | > 100 µM (inactive) | > 100 µM (inactive) | > 100 µM (inactive) | 50.2 µM (inactive)
